Consider three substances from patent US20130053430A1, “MODULATION OF CETP EXPRESSION” (Isis Pharmaceuticals, Inc., priority 2010, published 2013).

e = 2'-O-(2-methoxyethyl) (MOE); d = 2'-deoxy (DNA)

A short description of series [1]: Liver function, plasma ALT and AST, dose response (Example 9). It is filed as in vivo, mice. On the procedure:
(§1) Another group received subcutaneous injections of control oligonucleotide ISIS 141923 at a dose of 50 mg/kg/week for 6 weeks. One group of mice received subcutaneous injections of PBS for 6 weeks. The PBS-injected group served as the control group to which treatment groups were compared.

A further series has as its system ABCA1. Briefly: Liver ABCA1 mRNA expression (Example 9). It is filed as in vivo, mice. The note with it: percentage increase or decrease compared to PBS control, s.c. 6 weeks. On the procedure:
as §1
Liver RNA was isolated for real-time PCR analysis of ABCA1, ApoAI, and SR-B1. ATP-binding cassette transporter ABCA1 (member 1 of human transporter sub-family ABCA), also known as the cholesterol efflux regulatory protein (CERP) is a protein which in humans is encoded by the ABCA1 gene (Luciani, M. F. et al., Genomics. 1994. 21: 150-9). This transporter is a major regulator of cellular cholesterol and phospholipid homeostasis. Apolipoprotein A-I is a protein that in humans is encoded by the APOA1 gene (Breslow, J. L. et al., Proc. Natl. Acad. Sci. USA 1982. 79: 6861-5). Apolipoprotein A-I is the major protein component of HDL in plasma. The protein promotes cholesterol efflux from tissues to the liver for excretion. Scavenger receptor class B, type I (SR-BI) is an integral membrane protein found in numerous cell types/tissues, including the liver and adrenal (Acton, S. L. et al., J. Biol. Chem. 1994. 269: 21003-21009). It is best known for its role in facilitating the uptake of cholesteryl esters from high-density lipoproteins in the liver. Therefore, all three genes have a role in HDL regulation.
The primer probe set RTS1204 (forward sequence […], designated herein as SEQ ID NO: 122, reverse sequence […], designated herein as SEQ ID NO: 123, probe sequence AGGCCCAGACCTGTAAAGGCGAAGX, with X a fluorophore, designated herein as SEQ ID NO: 124) was used to measure abca1 levels. The primer probe set RTS14737 (forward sequence […], designated herein as SEQ ID NO: 125, reverse sequence […], designated herein as SEQ ID NO: 126, probe sequence CTGCAGGAACGGCTGGGCCCX, with X a fluorophore, designated herein as SEQ ID NO: 127) was used to measure apoA1 levels. The primer probe set mSRB-1 (forward sequence […], designated herein as SEQ ID NO: 128, reverse sequence ATGCGACTTGTCAGGCTGG, designated herein as SEQ ID NO: 129, probe sequence CGTGGAGAACCGCAGCCTCCATTX, with X a fluorophore, designated herein as SEQ ID NO: 130) was used to measure sr-b1 levels. The results are presented in Table 44 as percentage increase or decrease in the respective expression levels compared to the PBS control. Both primer probe sets produced similar results. The RNA expression levels were normalized to murine Cyclophilin. Treatment with ISIS 349517 caused an increase in ApoA1 and SR-B1 levels.

Series [2] in a line: Plasma cholesterol and triglyceride levels in huCETP transgenic mice (Example 5). The class given is in vivo. The note with it: 50 mg/kg i.p. twice per week; for HDL / LDL / Total cholesterol / Triglycerides / VLDL: plasma. The protocol: The mice were divided into five treatment groups. The first four groups received intraperitoneal injections of ISIS 349511, ISIS 349512, ISIS 349515, or ISIS 349517 at a dose of 50 mg/kg twice per week for 6 weeks. The fifth group received intraperitoneal injections of saline twice weekly for 6 weeks.
Plasma cholesterol were extracted at weeks 3 and 6 by the method of Bligh and Dyer (Bligh, E. G. and Dyer, W. J. Can. J. Biochem. Physiol. 37: 911-917, 1959) and measured with an Olympus clinical analyzer (Hitachi Olympus AU400e, Melville, N.Y.). HDL, LDL and VLDL cholesterol were individually measured by HPLC. Triglyceride levels were measured with the use of a commercially available triglyceride kit (DCL Triglyceride Reagent; Diagnostic Chemicals Ltd.). The results are presented in Tables 13 and 14 and are expressed in mg/dL. There was a significant increase in HDL levels in mice treated with ISIS oligonucleotides.

Series [3] can be described thus: Plasma glucose (Example 6). The following applies: 50 mg/kg s.c. twice per week. It is filed as in vivo, mice. On the procedure: The normal chow-fed mice were divided into three treatment groups. The cholesterol-enriched chow-fed mice were divided into three treatment groups. […] One chow-fed group and one cholesterol-enriched chow-fed group received subcutaneous injections of saline twice weekly for 6 weeks. The saline-injected groups served as the control groups to which the corresponding oligonucleotide-treated groups were compared.
Plasma glucose values were determined using a Beckman Glucose Analyzer II (Beckman Coulter) by a glucose oxidase method (Lott, J. A. et al., Clin. Chem. 21: 1754-1760, 1975).

In the case of “ISIS 141923: CCTTCCCTGAAGGTTCCTCC, 5-10-5 MOE gapmer, a control oligonucleotide which has no known murine target (sugars from the 5' end e5 d10 e5, backbone and methylation of C not given here) [reference compound]”, the ALT levels in series [1] (50 mg/kg/wk, Week 0) stood at 27 IU/L; in series [1] (50 mg/kg/wk, Week 3), 27 IU/L; in series [1] (50 mg/kg/wk, Week 6), 45 IU/L. In addition, the AST levels was 26 IU/L in series [1] (50 mg/kg/wk, Week 0); 46 IU/L in series [1] (50 mg/kg/wk, Week 3); 107 IU/L in series [1] (50 mg/kg/wk, Week 6). The “Percent inhibition of liver mRNA expression, ABCA1” value in the series with ABCA1 (Dose 50 mg/kg/wk) was “+16%”.

Take “ISIS 349511: 5-10-5 MOE gapmer CCCGACCTCCTTGGAGACTT (sugars from the 5' end e5 d10 e5, backbone and methylation of C not given here)”: the “Percentage of HDL in total cholesterol” value in series [2] (Week 3) is 73%; in series [2] (week 6), 76%. Besides, the HDL in series [2] (week 3) came to 60 mg/dL; in series [2] (week 6) it was 66 mg/dL. Further, the LDL in series [2] (week 3) stood at 15 mg/dL; in series [2] (week 6) it was 17 mg/dL. The Total cholesterol is recorded as 83 mg/dL in series [2] (week 3) and 88 mg/dL in series [2] (week 6). The values for the Triglycerides in series [2] (week 3) and in series [2] (week 6) were 87 mg/dL and 84 mg/dL, respectively. The substance further showed a VLDL in series [2] (week 6) of 4 mg/dL. Besides, the Glucose levels in series [3] (Cholesterol chow, Week 0) turned out to be 238 mg/dL; in series [3] (Cholesterol chow, Week 3), 289 mg/dL; in series [3] (Cholesterol chow, Week 6), 225 mg/dL; in series [3] (Normal chow, Week 0), 239 mg/dL; in series [3] (Normal chow, Week 3), 288 mg/dL; in series [3] (Normal chow, Week 6), 206 mg/dL.

For “ISIS 349517: 5-10-5 MOE gapmer CAGCACTTTAATGCCAGTGG (sugars from the 5' end e5 d10 e5, backbone and methylation of C not given here)”, the ALT levels in series [1] (1.5 mg/kg/wk, Week 0) was 20 IU/L; in series [1] (1.5 mg/kg/wk, Week 3), 18 IU/L; in series [1] (1.5 mg/kg/wk, Week 6) it was 54 IU/L; in series [1] (5 mg/kg/wk, Week 0) it was 26 IU/L; in series [1] (5 mg/kg/wk, Week 3), 25 IU/L; in series [1] (5 mg/kg/wk, Week 6), 49 IU/L. Moreover, the ALT levels in series [1] (15 mg/kg/wk, Week 0) is 24 IU/L; in series [1] (15 mg/kg/wk, Week 3) it was 27 IU/L; in series [1] (15 mg/kg/wk, Week 6) it was 36 IU/L; in series [1] (50 mg/kg/wk, Week 0), 27 IU/L; in series [1] (50 mg/kg/wk, Week 3), 33 IU/L; in series [1] (50 mg/kg/wk, Week 6) it was 76 IU/L. The AST levels in series [1] (1.5 mg/kg/wk, Week 0) was 38 IU/L; in series [1] (1.5 mg/kg/wk, Week 3) it was 43 IU/L; in series [1] (1.5 mg/kg/wk, Week 6), 133 IU/L; in series [1] (5 mg/kg/wk, Week 0) it was 40 IU/L; in series [1] (5 mg/kg/wk, Week 3) it was 46 IU/L; in series [1] (5 mg/kg/wk, Week 6), 246 IU/L. The AST levels is given as 24 IU/L in series [1] (15 mg/kg/wk, Week 0); 47 IU/L in series [1] (15 mg/kg/wk, Week 3); 70 IU/L in series [1] (15 mg/kg/wk, Week 6); 27 IU/L in series [1] (50 mg/kg/wk, Week 0); 52 IU/L in series [1] (50 mg/kg/wk, Week 3); 171 IU/L in series [1] (50 mg/kg/wk, Week 6). For the same substance, the entries for the “Percentage of HDL in total cholesterol” value in series [2] (Week 3) and in series [2] (week 6) were 75% and 74%, respectively. The HDL in series [2] (week 3) is recorded as 59 mg/dL; in series [2] (week 6) it was 55 mg/dL. Moreover, the LDL in series [2] (week 3) is given as 14 mg/dL; in series [2] (week 6), 15 mg/dL. The Total cholesterol in series [2] (week 3) is 79 mg/dL; in series [2] (week 6) it was 75 mg/dL. Moreover, the Triglycerides is 68 mg/dL in series [2] (week 3) and 103 mg/dL in series [2] (week 6). The substance also registered a VLDL in series [2] (week 6) of 4 mg/dL. Besides, the “Percent inhibition of liver mRNA expression, ABCA1” value in the series on ABCA1 (Dose 1.5 mg/kg/wk) is reported as “+6%”; in the series with ABCA1 (Dose 5 mg/kg/wk), “+15%”; in the series with ABCA1 (Dose 15 mg/kg/wk), −6%; in the series with ABCA1 (Dose 50 mg/kg/wk), −15%. The Glucose levels in series [3] (Cholesterol chow, Week 0) turned out to be 277 mg/dL; in series [3] (Cholesterol chow, Week 3), 245 mg/dL; in series [3] (Cholesterol chow, Week 6) it was 240 mg/dL; in series [3] (Normal chow, Week 0), 263 mg/dL; in series [3] (Normal chow, Week 3), 257 mg/dL; in series [3] (Normal chow, Week 6) it was 211 mg/dL.
